# Source: patent publication US7811352B2, “Fertilizer compositions and methods of using” (priority 2005, dated 2010)
# How the values were obtained:
# Assay type in all cases: in vivo
# [1] = tested on: Floratam St. Augustine grass; assay: Phytotoxicity rating, St. Augustine grass (Example 9); details: for Phytotoxicity - St. Augustine Grass: scale 0-5, 5=worst
# Description: In this Example, the effect of a fertilizer comprising lysine on warn season turfgrass growth was examined. The effects of lysine (HCl) and LIQUID LYSINE on a common type of lawn quality turfgrass (St. Augustine grass) were compared with those of urea and Milorganite. St. Augustine grass is a commonly utilized turfgrass throughout the warm, tropical zones for lawn turf and is a commercially significant species.
# Twelve fertilizer treatments comprising three concentrations of each fertilizer composition (Milorganite (N—P—K, 6-2-0), urea N—P—K, 46-0-0), LIQUID LYSINE (N—P—K, 10-2-1), and lysine (HCl) (N—P—K, 15-2-1)) were prepared and applied to 4 replications of Floratam St. Augustine grass. The lysine (HCl) was dissolved in water prior to application. Each fertilizer treatment was applied in concentrations of 0.5 lb N/1000 ft^2/month, 1.0 lb N/1000 ft^2/month and 3.0 lb N/1000 ft^2/month. The urea, LIQUID LYSINE and lysine (HCl) were applied as foliar liquids, while Milorganite was applied as a granular fertilizer. Plot size was 1 m×2 m set up as a randomized complete block. Plots were mowed at 3.0 inches before fertilizer application. Irrigation (0.15 inch) was applied following application. Plots were rated for turfgrass quality and color (scale of 1-10 where 10=dark green turf, 1=dead/brown turf; and 6=minimally acceptable turf) and phytotoxicity (scale of 0-5, where 5=worst, and 2=minimally objectionable) throughout the study period. Quality, color, and phytotoxicity were measured on 2 days before application (day −2) and day 2, day 5, day 15 and day 21 after application. All data was subject to statistical analysis and significant means were determined. Average turfgrass quality ratings for the treatments are presented in Table 6 and the quality results for application rates of 1.0 lb N/1000 ft^2/month are graphically presented in FIG. 2.
# [2] = tested on: creeping bentgrass for greens; assay: Phytotoxicity (% burn), creeping bentgrass for greens (Example 12)
# Description: In this Example, the effect of a fertilizer comprising lysine on turfgrass growth was examined. The effects of lysine (HCl) and LIQUID LYSINE on a common type of golf course greens quality turfgrass (creeping bentgrass for greens) were compared with those of CoRoN® brand fertilizer (commercially available from Helena Chemical Co., Collierville, Tenn.).
# Nine fertilizer treatments comprising three concentrations of each fertilizer composition (Corono® (N—P—K, 14-2-14), LIQUID LYSINE (N—P—K, 10-2-1), and lysine (HCl) (N—P—K, 15-2-1)) were prepared and applied to 3 replications of creeping bentgrass for use on golf course greens. The lysine (HCl) (250 g) was dissolved in water (500 mL) prior to application. Each fertilizer treatment was applied in concentrations of 0.7 g N/m^2, 1.4 g N/m^2, and 2.8 g N/m^2. All applications were made using an Ortho Heavy Duty hand pump sprayer with all products being mixed with 126 mL of water for application. Plot size was 2 ft×6 ft set up as a randomized complete block. Irrigation was applied following application. Plots were rated for turfgrass quality and color (scale of 1-10 where 10=dark green turf, 1=dead/brown turf, and 6minimally acceptable turf) and phytotoxicity (% bum) throughout the study period. Quality, color, and phytotoxicity were measured on day 7, day 14, day 2I1, day 28, day 35, and day 42 after application. All data was subject to statistical analysis and significant means were determined.
# [3] = tested on: lawn height, Kentucky bluegrass; assay: Injury rating of lawn height Kentucky bluegrass after fertilization (Example 5); details: about two weeks after application
# Protocol: In this Example, the efficacy of fertilizers on lawn height, Kentucky bluegrass was examined. Fertilizer compositions according to several embodiments of the present disclosure were prepared and compared to the commercial fertilizer products, urea 46-0-0 (granular) fertilizer, Lebanon fertilizer 21-0-12 (granular, commercially available from Lebanon Seaboard Corporation, Lebanon, Pa.) and Milorganite 6-2-0 (granular, commercially available from Milorganite, Milwaukee, Wis.). The fertilizer compositions were applied to the turf grass prior to winter dormancy at a rate equivalent to supplying about 1.0 pounds of nitrogen (N) per 1000 square feet. Each of the fertilizer compositions were applied at substantially equal rates of lbs of nitrogen (N) per 1000 square feet. Table 2 illustrates the response of lawn height, Kentucky bluegrass to fertilization using various exemplary fertilizers of the present invention, taken about two weeks after application of the fertilizer. The letters in the Color and Injury columns correspond to Duncan's Multiple Range Test.
# [4] = Monthly Rate 0.5 lbs N/1000 ft^2, Day 2
# [5] = Monthly Rate 0.5 lbs N/1000 ft^2, Day 5
# [6] = Monthly Rate 0.5 lbs N/1000 ft^2, Day 15
# [7] = Monthly Rate 0.5 lbs N/1000 ft^2, Day 21
# [8] = Monthly Rate 0.5 lbs N/1000 ft^2, Day −2 (before application)
# [9] = Monthly Rate 1.0 lbs N/1000 ft^2, Day 2
# [10] = Monthly Rate 1.0 lbs N/1000 ft^2, Day 5
# [11] = Monthly Rate 1.0 lbs N/1000 ft^2, Day 15
# [12] = Monthly Rate 1.0 lbs N/1000 ft^2, Day 21
# [13] = Monthly Rate 1.0 lbs N/1000 ft^2, Day −2 (before application)
# [14] = Monthly Rate 3.0 lbs N/1000 ft^2, Day 2
# [15] = Monthly Rate 3.0 lbs N/1000 ft^2, Day 5
# [16] = Monthly Rate 3.0 lbs N/1000 ft^2, Day 15
# [17] = Monthly Rate 3.0 lbs N/1000 ft^2, Day 21
# [18] = Monthly Rate 3.0 lbs N/1000 ft^2, Day −2 (before application)
compound,measurement,setting,value
"Cl.NCCCC[C@H](N)C(=O)O [Lys (HCl) 15% N, L-lysine monohydrochloride]",Phytotoxicity - St. Augustine Grass,[1]; [4],0.0c
same,Phytotoxicity - St. Augustine Grass,[1]; [5],0.4cd
same,Phytotoxicity - St. Augustine Grass,[1]; [6],0
same,Phytotoxicity - St. Augustine Grass,[1]; [7],0
same,Phytotoxicity - St. Augustine Grass,[1]; [8],0
same,Phytotoxicity - St. Augustine Grass,[1]; [9],0.0c
same,Phytotoxicity - St. Augustine Grass,[1]; [10],1.1bcd
same,Phytotoxicity - St. Augustine Grass,[1]; [11],0
same,Phytotoxicity - St. Augustine Grass,[1]; [12],0
same,Phytotoxicity - St. Augustine Grass,[1]; [13],0
same,Phytotoxicity - St. Augustine Grass,[1]; [14],0.4bc
same,Phytotoxicity - St. Augustine Grass,[1]; [15],1.1bcd
same,Phytotoxicity - St. Augustine Grass,[1]; [16],0
same,Phytotoxicity - St. Augustine Grass,[1]; [17],0
same,Phytotoxicity - St. Augustine Grass,[1]; [18],0
same,Phytotoxicity (% Burn) - Creeping Bentgrass,"[2]; Rate 0.7 gN/m^2, Day 7",2.3b %
same,Phytotoxicity (% Burn) - Creeping Bentgrass,"[2]; Rate 0.7 gN/m^2, Day 14",15.0c %
same,Phytotoxicity (% Burn) - Creeping Bentgrass,"[2]; Rate 0.7 gN/m^2, Day 21",10.0d %
same,Phytotoxicity (% Burn) - Creeping Bentgrass,"[2]; Rate 0.7 gN/m^2, Day 28",6.7b %
same,Phytotoxicity (% Burn) - Creeping Bentgrass,"[2]; Rate 0.7 gN/m^2, Day 35",3.3d %
same,Phytotoxicity (% Burn) - Creeping Bentgrass,"[2]; Rate 0.7 gN/m^2, Day 42",1.7c %
same,Phytotoxicity (% Burn) - Creeping Bentgrass,"[2]; Rate 1.4 gN/m^2, Day 7",15.0c %
same,Phytotoxicity (% Burn) - Creeping Bentgrass,"[2]; Rate 1.4 gN/m^2, Day 14",58.3b %
same,Phytotoxicity (% Burn) - Creeping Bentgrass,"[2]; Rate 1.4 gN/m^2, Day 21",51.7b %
same,Phytotoxicity (% Burn) - Creeping Bentgrass,"[2]; Rate 1.4 gN/m^2, Day 28",18.3ab %
same,Phytotoxicity (% Burn) - Creeping Bentgrass,"[2]; Rate 1.4 gN/m^2, Day 35",56.7b %
same,Phytotoxicity (% Burn) - Creeping Bentgrass,"[2]; Rate 1.4 gN/m^2, Day 42",31.7b %
same,Phytotoxicity (% Burn) - Creeping Bentgrass,"[2]; Rate 2.8 gN/m^2, Day 7",36.7a %
same,Phytotoxicity (% Burn) - Creeping Bentgrass,"[2]; Rate 2.8 gN/m^2, Day 14",78.3a %
same,Phytotoxicity (% Burn) - Creeping Bentgrass,"[2]; Rate 2.8 gN/m^2, Day 21",73.3a %
same,Phytotoxicity (% Burn) - Creeping Bentgrass,"[2]; Rate 2.8 gN/m^2, Day 28",35.0a %
same,Phytotoxicity (% Burn) - Creeping Bentgrass,"[2]; Rate 2.8 gN/m^2, Day 35",83.3a %
same,Phytotoxicity (% Burn) - Creeping Bentgrass,"[2]; Rate 2.8 gN/m^2, Day 42",78.3a %
"NC(N)=O [Urea, urea, reference compound]",Injury 1-9 (9 = no injury),[3]; 1.09 Lbs. product/1000 square feet,8.3
same,Injury 1-9 (9 = no injury),[3]; 2.17 Lbs. product/1000 square feet,8.7
same,Injury 1-9 (9 = no injury),[3]; 6.51 Lbs. product/1000 square feet,8.7
same,phytotoxicity,[1]; 1.0 lb N/1000 ft^2 and 3.0 lb N/1000 ft^2 application rate,some phytotoxicity
same,Phytotoxicity - St. Augustine Grass,[1]; [4],0.6bc
same,Phytotoxicity - St. Augustine Grass,[1]; [5],1.6bc
same,Phytotoxicity - St. Augustine Grass,[1]; [6],0
same,Phytotoxicity - St. Augustine Grass,[1]; [7],0
same,Phytotoxicity - St. Augustine Grass,[1]; [8],0
same,Phytotoxicity - St. Augustine Grass,[1]; [9],1.5b
same,Phytotoxicity - St. Augustine Grass,[1]; [10],2.0ab
same,Phytotoxicity - St. Augustine Grass,[1]; [11],0
same,Phytotoxicity - St. Augustine Grass,[1]; [12],0
same,Phytotoxicity - St. Augustine Grass,[1]; [13],0
same,Phytotoxicity - St. Augustine Grass,[1]; [14],2.8a
same,Phytotoxicity - St. Augustine Grass,[1]; [15],3.0a
same,Phytotoxicity - St. Augustine Grass,[1]; [16],0
same,Phytotoxicity - St. Augustine Grass,[1]; [17],0
same,Phytotoxicity - St. Augustine Grass,[1]; [18],0
